Data: patent US20110269763A1, “CRTH2 receptor ligands for medicinal uses” (7TM Pharma A/S, priority 2004, published 2011)

Experiments:
human CRTH2 [1] = molecular target: T1, human CRTH2 (Homo sapiens, UniProt Q9Y5Y4, V204A); assay: Receptor binding assay: [3H]PGD2 competition binding on whole COS-7 cells transiently transfected with CRTH2 (also stable HEK293 cells); set-up: expressed in transfected cells; host or cells: COS-7 (transient, calcium phosphate); conditions: competition with 0.1 nM [3H]PGD2, whole cells, 3 h at 4° C.
T1 sequence (Q9Y5Y4 1-395 V204A): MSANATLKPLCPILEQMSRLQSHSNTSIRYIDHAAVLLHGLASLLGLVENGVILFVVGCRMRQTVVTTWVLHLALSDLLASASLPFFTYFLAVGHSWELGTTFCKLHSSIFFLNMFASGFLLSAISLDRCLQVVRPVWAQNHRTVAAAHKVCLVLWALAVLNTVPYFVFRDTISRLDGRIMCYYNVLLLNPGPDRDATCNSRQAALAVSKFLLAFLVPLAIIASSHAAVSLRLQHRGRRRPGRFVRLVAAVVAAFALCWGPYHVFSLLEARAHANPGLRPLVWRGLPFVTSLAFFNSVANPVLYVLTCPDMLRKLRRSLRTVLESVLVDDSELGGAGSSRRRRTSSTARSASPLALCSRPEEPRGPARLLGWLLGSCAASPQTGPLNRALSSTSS
Outline: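 Whole COS-7 cells transiently transfected with human CRTH2 (calcium phosphate), or stable HEK293 cells, competed against 0.1 nM [3H]PGD2 in HBSS/10 mM HEPES with 1% DMSO, 3 h at 4 °C. Nonspecific binding with 10 μM PGD2; scintillation counting, duplicates. IC50 from curve fitting.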

human CRTH2 [2] = molecular target: T1, human CRTH2; assay: Functional antagonist BRET assay on HEK293 cells stably expressing human CRTH2-Rluc and GFP2-β-arr2; assay type: cell-based; set-up: expressed in transfected cells; conditions: BRET, antagonist incubated 15 minutes prior to agonist; read-out: Antag. IC50
Outline: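 Cells (2×10^6/mL in D-PBS with glucose) were preincubated 15 min with antagonist at 1% DMSO, then agonist and DeepBlueC were co-injected. Emission at 400 and 515 nm was read 5 s later, and the mBRET ratio (515/400 nm) was used to derive IC50 from concentration–response curves.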

IC50 (human CRTH2 [1]) [µM]	IC50 (human CRTH2 [2]) [µM]	SMILES
< 0.5	< 0.5	COc1ccc(Cc2nc(-c3cc(Br)ccc3OCC(=O)O)co2)cc1 [D92, {4-Bromo-2-[2-(4-methoxybenzyl)oxazol-4-yl]phenoxy}acetic acid]
< 0.5	< 0.5	CCc1cccc(CC)c1-n1cc(C(=O)c2cc(Br)ccc2OC(C)C(=O)O)cn1 (stereo not shown) [D78, 2-{4-Bromo-2-[1-(2,6-diethylphenyl)-1H-pyrazole-4-carbonyl]phenoxy}propionic acid]
< 0.5	< 0.5	O=C(O)COc1ccc(Br)cc1C(=O)c1cnn(-c2cccc(C(F)(F)F)c2)c1 [D25, 4-Bromo-2-[1-(3-trifluoromethylphenyl)-1H-pyrazole-4-carbonyl]phenoxyacetic acid]
< 0.5	< 0.5	CCc1ccccc1-n1cc(C(=O)c2cc(Br)ccc2OCC(=O)O)cn1 [D18, 4-Bromo-2-[1-(2-ethylphenyl)-1H-pyrazole-4-carbonyl]phenoxyacetic acid]
< 0.5	< 0.5	CC1(Cc2cc(Br)ccc2OCC(=O)O)SC(=O)N(Cc2ccc(Cl)cc2)C1=O (stereo not shown) [D146, 4-Bromo-2-[3-(4-chlorobenzyl)-5-methyl-2,4-dioxothiazolidin-5-ylmethyl]phenoxyacetic acid]
< 0.5	0.5 to 5	COc1ccc(-c2nc(-c3cc(Br)ccc3OCC(=O)O)co2)cc1 [D84, {4-Bromo-2-[2-(4-methoxyphenyl)oxazol-4-yl]phenoxy}acetic acid]
< 0.5	< 0.5	CCc1cccc(CC)c1-n1cc(C(=O)c2cc(Br)ccc2OCC(=O)O)cn1 [D70, {4-Bromo-2-[1-(2,6-diethyl-phenyl)-1H-pyrazole-4-carbonyl]phenoxy}acetic acid]
< 0.5	< 0.5	O=C(O)COc1ccccc1C=NNC(=O)c1ccc2ccccc2c1O [D154]
> 5	< 0.5	O=C(O)COc1ccc(Br)cc1C(=O)c1cnn(-c2ccccc2Cl)c1 [D14, 4-Bromo-2-[1-(2-chloro-phenyl)-1H-pyrazole-4-carbonyl]phenoxyacetic acid]
< 0.5	0.5 to 5	O=C(O)COc1ccc(Cl)cc1C(=O)c1cnn(-c2ccccc2)c1 [D10, [4-Chloro-2-(1-phenyl-1H-pyrazole-4-carbonyl)phenoxy]acetic acid]
< 0.5	0.5 to 5	O=C(O)COc1ccc(Br)cc1-c1nc(-c2ccccc2)co1 [D96, [4-Bromo-2-(4-phenyl-oxazol-2-yl)-phenoxy]acetic acid]
